How the values were obtained:
[1] = Plasma and liver distribution of Rc in rats after iv injection; assay type: in vivo, rat
Protocol: The rats were injected with Rc solution (3 mg/mL/kg, dissolved in saline) via the tail vein. Blood samples were collected from the abdominal artery, and the liver tissue was immediately excised, gently washed with ice-cold saline, and weighed after the rats were euthanized at 2, 12, and 48 h after intravenous injection of Rc. The blood samples were centrifuged (16,000× g, 10 min, 4 °C) and the liver tissue samples were homogenized with four volumes of saline. Aliquots (50 μL each) of plasma and liver homogenates were stored at −80 °C until the analysis of the ginsenoside Rc.

OATP1B3 [2] = target: T1, OATP1B3 (Homo sapiens, UniProt Q9NPD5); experiment: Inhibition of OATP1B3-mediated valsartan uptake in HEK293-OATP1B3 cells; assay type: cell-based; set-up: host or cells: HEK293; conditions: 5 μM valsartan, 5 min
T1 sequence (Q9NPD5 1-702): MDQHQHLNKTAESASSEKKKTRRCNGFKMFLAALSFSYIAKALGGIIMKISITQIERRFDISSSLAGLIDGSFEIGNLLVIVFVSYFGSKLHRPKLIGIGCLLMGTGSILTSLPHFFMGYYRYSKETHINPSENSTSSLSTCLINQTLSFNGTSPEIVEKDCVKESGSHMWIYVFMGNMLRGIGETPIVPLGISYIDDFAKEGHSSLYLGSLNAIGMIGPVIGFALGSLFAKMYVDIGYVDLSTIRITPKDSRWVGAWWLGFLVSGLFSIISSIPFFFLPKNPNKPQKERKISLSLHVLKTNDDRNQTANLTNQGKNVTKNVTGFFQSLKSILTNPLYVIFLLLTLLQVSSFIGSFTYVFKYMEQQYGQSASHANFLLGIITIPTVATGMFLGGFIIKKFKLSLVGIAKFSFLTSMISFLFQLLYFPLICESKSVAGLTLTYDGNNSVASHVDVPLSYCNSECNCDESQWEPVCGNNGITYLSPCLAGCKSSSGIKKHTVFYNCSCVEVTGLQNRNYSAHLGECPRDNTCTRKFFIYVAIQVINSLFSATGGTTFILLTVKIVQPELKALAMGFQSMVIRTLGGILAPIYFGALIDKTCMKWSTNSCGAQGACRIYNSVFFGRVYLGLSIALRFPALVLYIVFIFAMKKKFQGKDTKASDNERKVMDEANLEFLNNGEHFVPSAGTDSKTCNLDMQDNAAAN
Protocol: Transporter mediated uptake of probe substrates or valsartan was calculated by subtracting the uptake rate of probe substrates or valsartan into HEK293-mock cells from that into HEK293 cells expressing respective transporters.

[3] = Plasma pharmacokinetics of Rc in rats after repeated iv injection; assay type: in vivo; conditions: rat plasma, Rc 3 mg/kg/day iv for 5 days
Protocol: The rats were randomly divided into the control and Rc groups. The Rc group was injected with Rc solution (3 mg/mL/kg, dissolved in saline) intravenously via the tail vein for 5 consecutive days. The control group received saline (1 mL/kg) for 5 consecutive days via the tail vein. After 1 h following the last Rc treatment, valsartan was injected intravenously via the femoral vein at 1 mg/kg.

UGT1A3 = test system: UGT1A3; set-up: method as in PMID 27462006; conditions: cited from earlier work
UGT2B7 = test system: UGT2B7; set-up: method as in PMID 27462006; conditions: cited from earlier work
OATP1B3 [4] = conditions: cited from earlier work
CYP2C9 = test system: CYP2C9; set-up: method as in PMID 30078466; conditions: cited from earlier work
OATP1B1 = conditions: cited from earlier work

## CC(C)=CCC[C@](C)(O[C@@H]1O[C@H](CO[C@@H]2O[C@@H](CO)[C@H](O)[C@H]2O)[C@@H](O)[C@H](O)[C@H]1O)[C@H]1CC[C@]2(C)[C@@H]1[C@H](O)C[C@@H]1[C@@]3(C)CC[C@H](O[C@@H]4O[C@H](CO)[C@@H](O)[C@H](O)[C@H]4O[C@@H]4O[C@H](CO)[C@@H](O)[C@H](O)[C@H]4O)C(C)(C)[C@@H]3CC[C@]12C [Rc, ginsenoside Rc]
[1]; estimated from concentration and protein binding
  free Rc concentration in rat liver: 0.07 to 0.14 µM
[1]; rat, liver (versus plasma), rats, Rc 3 mg/kg iv, 2, 12 and 48 h, read-out: liver-to-plasma concentration ratio
  Kp: 0.13 to 0.2
OATP1B3 [2]
  IC50: 1.9 µM
[3]
  AUC(0-inf): 1060 ± 325 µM·h
  C0: 34 ± 5.22 µM
  MRT: 38.5 ± 5.11 h
  half-life: 27.5 ± 4.26 h
[3]; read-out: AUC24h
  AUC(0-t): 749 ± 185 µM·h

## CC(C)=CCC[C@](C)(O)[C@H]1CC[C@]2(C)[C@@H]1[C@H](O)C[C@@H]1[C@@]3(C)CC[C@H](O[C@@H]4O[C@H](CO)[C@@H](O)[C@H](O)[C@H]4O)C(C)(C)[C@@H]3CC[C@]12C [Rh2, ginsenoside Rh2]
UGT1A3
  IC50: 37.9 µM

## CC(C)=CCC[C@](C)(O[C@@H]1O[C@H](CO[C@@H]2OC[C@H](O)[C@H](O)[C@H]2O)[C@@H](O)[C@H](O)[C@H]1O)[C@H]1CC[C@]2(C)[C@@H]1[C@H](O)C[C@@H]1[C@@]3(C)CC[C@H](O[C@@H]4O[C@H](CO)[C@@H](O)[C@H](O)[C@H]4O[C@@H]4O[C@H](CO)[C@@H](O)[C@H](O)[C@H]4O)C(C)(C)[C@@H]3CC[C@]12C [Rb2, ginsenoside Rb2]
OATP1B3 [2]
  IC50: 5.1 µM

## CC(C)=CCC[C@](C)(O)[C@H]1CC[C@]2(C)[C@@H]1[C@H](O)C[C@@H]1[C@@]3(C)CC[C@H](O[C@@H]4O[C@H](CO)[C@@H](O)[C@H](O)[C@H]4O[C@@H]4O[C@H](CO)[C@@H](O)[C@H](O)[C@H]4O)C(C)(C)[C@@H]3CC[C@]12C [Rg3, ginsenoside Rg3]
UGT1A3
  IC50: 20.9 µM
UGT2B7
  IC50: 23.1 µM

## CC(C)=CCC[C@](C)(O[C@@H]1O[C@H](CO[C@@H]2O[C@H](CO)[C@@H](O)[C@H](O)[C@H]2O)[C@@H](O)[C@H](O)[C@H]1O)[C@H]1CC[C@]2(C)[C@@H]1[C@H](O)C[C@@H]1[C@@]3(C)CC[C@H](O[C@@H]4O[C@H](CO)[C@@H](O)[C@H](O)[C@H]4O[C@@H]4O[C@H](CO)[C@@H](O)[C@H](O)[C@H]4O)C(C)(C)[C@@H]3CC[C@]12C [Rb1, ginsenoside Rb1]
OATP1B3 [4]
  IC50: 4.8 µM
CYP2C9
  IC50: 2.4 µM
OATP1B3 [2]
  IC50: 4.1 µM
OATP1B1
  IC50: 33.2 µM
